According to article PMC11149917, “Translational and Therapeutic Evaluation of RAS-GTP Inhibition by RMC-6236 in RAS-Driven Cancers” (Cancer Discovery, 2024):
Where two headings read alike, the source gives them in different places.

Test: Mouse blood and tissue PK (LC/MS-MS)
Assay type: in vivo
Details: for Kp: tumor relative to whole blood
Procedure: For single-dose PKPD study, mice were randomized and assigned into groups (n = 3/dose/time point). […] Blood and tissues, including the tumor, brain, colon, ear skin, and muscle, were harvested at indicated time points. […] The whole blood, tumor, brain, colon, and ear skin concentrations of RMC-6236 were determined using liquid chromatography–tandem mass spectrometry (LC/MS-MS) methods. […] After thorough mixing and centrifugation, the supernatant was diluted with water or directly analyzed on a Sciex 5500 or Sciex 6500+ triple quadrupole mass spectrometer equipped with an ACQUITY or Shimadzu UPLC system. […] Bioanalysis on blood and tissue samples from xenograft models was run at Pharmaron and Wuxi AppTec. Concentrations reported as below the quantification limit were treated as zero for PK analysis. PK parameters were calculated by noncompartmental analysis of the concentration–time profiles using Phoenix WinNonLin (version 8.3 Certara). Apparent terminal elimination half-life (t1/2) values were calculated as ln(2)/k, where k represents the terminal elimination rate constant. Area under the concentration–time curve (AUC) values were estimated using a linear trapezoidal method. AUClast values were calculated from the dosing time to the last quantifiable concentration. Maximum concentration (Cmax) was recorded as observed.

[1] = NCI-H2122 (25 mg/kg), single dose

In the case of `CCn1c(-c2cc(N3CCN(C)CC3)cnc2[C@H](C)OC)c2c3cc(ccc31)-c1csc(n1)C[C@H](NC(=O)[C@H]1C[C@@H]1C)C(=O)N1CCC[C@H](N1)C(=O)OCC(C)(C)C2` [RMC-6236], the “Tumor AUClast” value [1] is reported as 50057 ng·h/mL, the “Tumor Cmax” value [1] is reported as 3350 ng/mL and the “Brain Cmax” value (Naïve Mice #1 (10 mg/kg), single dose) is reported as 25 ng/mL. The “Brain Cmax” value (Naïve Mice #1 (50 mg/kg), single dose) was 161 ng/mL, the concentration at 4 h (mouse, ear skin, oral, 25 mg/kg, sheet Ear Skin, model KP-4, study KP-4 #5, 25 mg/kg, read-out: RMC-6236 (nM) Tumor) was 2790 nM and the concentration at 8 h (mouse, ear skin, oral, 25 mg/kg, sheet Ear Skin, model KP-4, study KP-4 #5, 25 mg/kg, 8h, read-out: RMC-6236 (nM) Tumor) was 1610 nM. For the same compound, the concentration at 48 h (mouse, ear skin, oral, 25 mg/kg, sheet Ear Skin, model KP-4, study KP-4 #5, 25 mg/kg, 48h, read-out: RMC-6236 (nM) Tumor) was 221 nM, the Kp (mouse, oral, 3 mg/kg, NCI-H441 (3 mg/kg), single dose, read-out: Tumor/Blood AUC Ratio) was 5.4 and the Kp (mouse, oral, 10 mg/kg, NCI-H441 (10 mg/kg), single dose, read-out: Tumor/Blood AUC Ratio) was 4.6. It also gave a Kp (mouse, oral, 25 mg/kg, HPAC (25 mg/kg), single dose, read-out: Tumor/Blood AUC Ratio) of 6.6, a Kp (mouse, oral, 25 mg/kg, KP-4 (25 mg/kg), single dose, read-out: Tumor/Blood AUC Ratio) of 6.4 and a Kp (mouse, oral, 25 mg/kg, NCI-H358 (25 mg/kg), single dose, read-out: Tumor/Blood AUC Ratio) of 5.9. For the same compound, the Kp (mouse, oral, 25 mg/kg, NCI-H441 #2 (25 mg/kg), QD x 10 days, read-out: Tumor/Blood AUC Ratio) was 4.9, the Kp (mouse, oral, 25 mg/kg, NCI-H441 (25 mg/kg), single dose, read-out: Tumor/Blood AUC Ratio) was 6.1 and the Kp (mouse, oral, 25 mg/kg, NCI-H2122 (25 mg/kg), single dose, read-out: Tumor/Blood AUC Ratio) was 6.3. The Kp (mouse, oral, various xenograft tumors, read-out: exposure in xenograft tumors relative to blood) was 3 to 7, the concentration at 8 h (mouse, tumor, oral, 0.3 mg/kg, HPAC #11, 0.3 mg/kg, 8h, individual animals, read-out: RMC-6236 (nM) Tumor) was 37 nM and the concentration at 24 h (mouse, tumor, oral, 0.3 mg/kg, NCI-H441 xenograft tumor, study NCI-H441#10, 0.3 mg/kg, 24h, read-out: RMC-6236 (nM) Tumor) was 36.8 nM. It also gave a concentration at 8 h (mouse, tumor, oral, 0.3 mg/kg, NCI-H441 xenograft tumor, study NCI-H441#13, 0.3 mg/kg, 8h, read-out: RMC-6236 (nM) Tumor) of 89.5 nM, a concentration at 8 h (mouse, tumor, oral, 1 mg/kg, HPAC #11, 1 mg/kg, 8h, individual animals, read-out: RMC-6236 (nM) Tumor) of 216 nM and a concentration at 8 h (mouse, tumor, oral, 1 mg/kg, NCI-H441 xenograft tumor, study NCI-H441#10, 1 mg/kg, 8h, read-out: RMC-6236 (nM) Tumor) of 129 nM. The concentration at 8 h (mouse, tumor, oral, 1 mg/kg, NCI-H441 xenograft tumor, study NCI-H441#13, 1 mg/kg, 8h, read-out: RMC-6236 (nM) Tumor) was 114 nM, the concentration at 24 h (mouse, tumor, oral, 1 mg/kg, NCI-H441 xenograft tumor, study NCI-H441#13, 1 mg/kg, 24h, read-out: RMC-6236 (nM) Tumor) was 53.2 nM and the concentration at 8 h (mouse, tumor, oral, 3 mg/kg, HPAC #4, 3 mg/kg, 8h, individual animals, read-out: RMC-6236 (nM) Tumor) was 245 nM. The concentration at 24 h (mouse, tumor, oral, 3 mg/kg, HPAC #4, 3 mg/kg, 24h, individual animals, read-out: RMC-6236 (nM) Tumor) was 205 nM, the concentration at 48 h (mouse, tumor, oral, 3 mg/kg, HPAC #4, 3 mg/kg, 48h, individual animals, read-out: RMC-6236 (nM) Tumor) was 31.9 nM and the concentration at 4 h (mouse, tumor, oral, 3 mg/kg, KP-4, study KP-4 #6, 3 mg/kg, read-out: RMC-6236 (nM) Tumor) was 264 nM. It also gave a concentration at 8 h (mouse, tumor, oral, 3 mg/kg, KP-4, study KP-4 #6, 3 mg/kg, 8h, read-out: RMC-6236 (nM) Tumor) of 340 nM, a concentration at 12 h (mouse, tumor, oral, 3 mg/kg, KP-4, study KP-4 #6, 3 mg/kg, 12h, read-out: RMC-6236 (nM) Tumor) of 298 nM and a concentration at 48 h (mouse, tumor, oral, 3 mg/kg, KP-4, study KP-4 #6, 3 mg/kg, 48h, read-out: RMC-6236 (nM) Tumor) of 29 nM. For the same compound, the concentration at 24 h (mouse, tumor, oral, 3 mg/kg, NCI-H441 xenograft tumor, study NCI-H441#6, 3 mg/kg, 24h, read-out: RMC-6236 (nM) Tumor) was 159 nM, the concentration at 48 h (mouse, tumor, oral, 3 mg/kg, NCI-H441 xenograft tumor, study NCI-H441#6, 3 mg/kg, 48h, read-out: RMC-6236 (nM) Tumor) was 63 nM and the concentration at 4 h (mouse, tumor, oral, 10 mg/kg, HPAC #4, 10 mg/kg, individual animals, read-out: RMC-6236 (nM) Tumor) was 817 nM. The concentration at 8 h (mouse, tumor, oral, 10 mg/kg, HPAC #4, 10 mg/kg, 8h, individual animals, read-out: RMC-6236 (nM) Tumor) was 1230 nM, the concentration at 24 h (mouse, tumor, oral, 10 mg/kg, HPAC #4, 10 mg/kg, 24h, individual animals, read-out: RMC-6236 (nM) Tumor) was 300 nM and the concentration at 48 h (mouse, tumor, oral, 10 mg/kg, HPAC #4, 10 mg/kg, 48h, individual animals, read-out: RMC-6236 (nM) Tumor) was 128 nM. The concentration at 48 h (mouse, tumor, oral, 10 mg/kg, KP-4, study KP-4 #6, 10 mg/kg, 48h, read-out: RMC-6236 (nM) Tumor) was 235 nM, the concentration at 1 h (mouse, tumor, oral, 10 mg/kg, Model Validation Dataset, 10mg/kg_study6, 1 h, read-out: Tumor Concentration) was 340 nM and the concentration at 8 h (mouse, tumor, oral, 10 mg/kg, Model Validation Dataset, 10mg/kg_study6, 8 h, read-out: Tumor Concentration) was 1010 nM. The concentration at 24 h (mouse, tumor, oral, 10 mg/kg, Model Validation Dataset, 10mg/kg_study6, 24 h, read-out: Tumor Concentration) was 353 nM, the concentration at 48 h (mouse, tumor, oral, 10 mg/kg, Model Validation Dataset, 10mg/kg_study6, 48 h, read-out: Tumor Concentration) was 214 nM and the concentration at 8 h (mouse, tumor, oral, 10 mg/kg, NCI-H441 xenograft tumor, study NCI-H441#6, 10 mg/kg, 8h, read-out: RMC-6236 (nM) Tumor) was 904 nM. It also gave a concentration at 24 h (mouse, tumor, oral, 10 mg/kg, NCI-H441 xenograft tumor, study NCI-H441#6, 10 mg/kg, 24h, read-out: RMC-6236 (nM) Tumor) of 519 nM, a concentration at 48 h (mouse, tumor, oral, 10 mg/kg, NCI-H441 xenograft tumor, study NCI-H441#6, 10 mg/kg, 48h, read-out: RMC-6236 (nM) Tumor) of 213 nM and a concentration at 8 h (mouse, tumor, oral, 10 mg/kg, NCI-H441 xenograft tumor, study NCI-H441#10, 10 mg/kg, 8h, read-out: RMC-6236 (nM) Tumor) of 685 nM. It also gave a concentration at 24 h (mouse, tumor, oral, 10 mg/kg, NCI-H441 xenograft tumor, study NCI-H441#10, 10 mg/kg, 24h, read-out: RMC-6236 (nM) Tumor) of 541 nM and a concentration at 48 h (mouse, tumor, oral, 10 mg/kg, NCI-H441 xenograft tumor, study NCI-H441#10, 10 mg/kg, 48h, read-out: RMC-6236 (nM) Tumor) of 153 nM.
